Assay results as given in US20160206688A1, “METHODS FOR TREATING BACTEREMIA AND OSTEOMYELITIS USING ORITAVANCIN” (THE MEDICINES COMPANY, priority 2013, published 2016).
Converted amounts (≈) assume the structure as drawn. Read-outs that look alike come from different tables or passages of the source.

Legend:
[1] = test system: S. agalactiae; assay: Broth microdilution MIC, US isolates 2011-2012, blood vs non-blood; type: cell-based
Protocol: (§1) 527 E. faecalis, 176 E. faecium, and 790 BHS (335 S. pyogenes and 455 S. agalactiae) clinical, single patient, non-consecutive isolates were collected in 2011-2012 from 46 sites geographically distributed across the United States. The MICs were determined by broth microdilution testing performed in accordance with CLSI M7 and M100 guidelines. From the resulting database, this analysis focused on the activities of ORI, vancomycin (VAN), daptomycin (DAP), and linezolid (LZD) according to specimen source.

[2] = test system: E. faecium; assay: as above; type: cell-based
Protocol: as §1

[3] = test system: S. pyogenes; assay: as above; type: cell-based
Protocol: as §1

[4] = test system: E. faecalis; assay: as above; type: cell-based
Protocol: as §1

[5] = test system: MDR SA; assay: Microdilution MIC against MDR SA by specimen source; type: cell-based, S. aureus
Protocol: 456 clinical, single-patient, non-consecutive, MDR SA isolates from the known specimen sources collected in 2011-2012 were analyzed. MDR was defined as resistant to ≧3 of the following: erythromycin, clindamycin, gentamicin, levofloxacin, and trimethoprim/sulfamethoxazole. 382 were MRSA and 74 were MSSA. MICs were determined by microdilution testing in accordance with CLSI M7 and M100 guidelines. Although other comparator drugs were tested, this analysis focuses on the activities of ORI, VAN, DAP, and LZD.

[6] = test system: Coagulase-negative staphylococci; assay: Broth microdilution MIC, European bacteraemia isolates 2010-2012; type: cell-based, coagulase-negative staphylococci (CoNS); conditions: Coagulase-negative staphylococci (646); for MIC50 / MIC90 / MIC Range: Table 2
Protocol: (§2) A total of 2,904 clinical strains responsible for documented bacteremia among unique hospitalized patients in 38 hospitals in 11 European Union countries. Israel, Russia, Turkey and Ukraine were included in this study (2010-2012). Isolates were submitted to a central monitoring laboratory (JMI Laboratories, North Liberty. Iowa. USA), following previously established protocols. Bacterial species identification was performed by using an automated system (Vitek®2; bioMèrieux, Hazelwood, Mo., USA) or conventional biochemical algorithms, as required.
(§3) Isolates were tested for susceptibility by broth microdilution methods following the Clinical and Laboratory Standards Institute (CLSI; M07-A9, 2012) document. Susceptibility testing was performed in cation-adjusted Mueller-Hinton broth (CA-MHB) using dry-form panels manufactured by Thermo Fisher Scientific, formerly TREK Diagnostics Systems/Sensititre (Cleveland. Ohio, USA). These panels provide results equivalent to the CLSI-approved broth microdilution method supplemented with 0.002% polysorbate-80.
(§4) Quality assurance was performed by concurrent testing of CLSI-recommended (M100-S23, 2013) strains: E. faecalis ATCC 29212 and S. aureus ATCC 29213. Interpretation of comparator MIC results was in accordance with published CLSI (M100-S23) and European Committee on Antimicrobial Susceptibility Testing (EUCAST, 2013) criteria.

[7] = test system: E. faecalis; assay: as above; type: cell-based, Enterococcus faecalis; conditions: for % susceptible: E. faecalis strains, criteria not stated; for MIC50 / MIC90: Enterococcus faecalis
Protocol: as §2, §3, §4

[8] = test system: S. aureus; assay: as above; type: cell-based; conditions: S. aureus Methicillin-resistant (1,708); for % Resistant, EUCAST / % Susceptible, EUCAST: EUCAST 2013 breakpoints; for MIC50 / MIC90: Staphylococcus aureus; for MIC50 / MIC90 / MIC Range: Table 2
Protocol: as §2, §3, §4

[9] = test system: E. faecium; assay: as above; type: cell-based, Enterococcus faecium; conditions: for % Resistant, CLSI / % Susceptible, CLSI: CLSI M100-S23 breakpoints; for % Resistant, EUCAST / % Susceptible, EUCAST: EUCAST 2013 breakpoints
Protocol: as §2, §3, §4

[10] = test system: VRE; assay: Susceptibility of the subject's blood culture isolate (treatment history); type: cell-based
Excerpt: 11, 2013; the plan was for at least 8 weeks of antibiotic therapy.

[11] = E. faecalis (445), CLSI M100-S23 breakpoints
[12] = E. faecalis (445), EUCAST 2013 breakpoints
[13] = E. faecium Vancomycin-resistant (VanA-phenotype) (153)
[14] = E. faecium Vancomycin-susceptible (257)
[15] = Enterococcus faecium, Table 2, E. faecium Vancomycin-resistant (VanA-phenotype) (153)
[16] = Enterococcus faecium, Table 2, E. faecium Vancomycin-susceptible (257)
[17] = Table 2, E. faecium Vancomycin-resistant (VanA-phenotype) (153)
[18] = Table 2, E. faecium Vancomycin-susceptible (257)

CN[C@H](CC(C)C)C(=O)N[C@H]1C(=O)N[C@@H](CC(N)=O)C(=O)N[C@H]2C(=O)N[C@H]3C(=O)N[C@H](C(=O)N[C@H](C(=O)O)c4cc(O)cc(O)c4-c4cc3ccc4O)[C@H](O)c3ccc(c(Cl)c3)Oc3cc2cc(c3O[C@@H]2O[C@H](CO)[C@@H](O)[C@H](O)[C@H]2O[C@H]2C[C@](C)(N)[C@H](O)[C@H](C)O2)Oc2ccc(cc2Cl)[C@H]1O [Vancomycin, vancomycin]
MIC90 ([1]; Blood, N 100): 0.5 µg/mL (≈ 0.345 µM)
MIC90 ([1]; Non-Blood, N 355): 0.5 µg/mL (≈ 0.345 µM)
MIC90 ([2]; Blood, N 84): > 32 µg/mL
MIC90 ([2]; Non-Blood, N 92): > 32 µg/mL
MIC90 ([3]; Blood, N 53): 0.25 µg/mL (≈ 0.173 µM)
MIC90 ([3]; Non-Blood, N 282): 0.25 µg/mL (≈ 0.173 µM)
MIC90 ([4]; Blood, N 116): 2 µg/mL (≈ 1.38 µM)
MIC90 ([4]; Non-Blood, N 411): 2 µg/mL (≈ 1.38 µM)
MIC50 ([5]; Blood, n = 108): 0.5 µg/mL (≈ 0.345 µM)
MIC90 ([5]; Blood, n = 108): 1 µg/mL (≈ 0.69 µM)
Mode (MIC) ([5]; Blood, n = 108): 0.5 µg/mL
Range (MIC) ([5]; Blood, n = 108, in µg/mL): 0.5-2
MIC50 ([5]; Respiratory, N = 157): 0.5 µg/mL (≈ 0.345 µM)
MIC90 ([5]; Respiratory, N = 157): 1 µg/mL (≈ 0.69 µM)
Mode (MIC) ([5]; Respiratory, N = 157): 0.5 µg/mL
Range (MIC) ([5]; Respiratory, N = 157): ≦0.25-1
MIC50 ([5]; Skin/Wound, N = 191): 0.5 µg/mL (≈ 0.345 µM)
MIC90 ([5]; Skin/Wound, N = 191): 1 µg/mL (≈ 0.69 µM)
Mode (MIC) ([5]; Skin/Wound, N = 191): 0.5 µg/mL
Range (MIC) ([5]; Skin/Wound, N = 191): ≦0.25-1
% Resistant, CLSI ([6]; CLSI M100-S23 breakpoints): 0.0%
MIC50 [6]: 2 µg/mL (≈ 1.38 µM)
MIC90 [6]: 2 µg/mL (≈ 1.38 µM)
MIC Range [6]: 0.25 to 4 µg/mL
% Resistant, CLSI [7, 11]: 0.9%
% Susceptible, CLSI [7, 11]: 99.1%
% Resistant, EUCAST [7, 12]: 0.9%
% Susceptible, EUCAST [7, 12]: 99.1%
% susceptible [7]: 99.1%
MIC50 [7]: 1 µg/mL (≈ 0.69 µM)
MIC90 [7]: 2 µg/mL (≈ 1.38 µM)
% Resistant, CLSI ([8]; CLSI M100-S23 breakpoints): 0.0%
% Susceptible, CLSI ([8]; CLSI M100-S23 breakpoints): 100.0%
% Resistant, EUCAST [8]: 0.0%
% Susceptible, EUCAST [8]: 100.0%
MIC50 [8]: 1 µg/mL (≈ 0.69 µM)
MIC90 [8]: 1 µg/mL (≈ 0.69 µM)
MIC Range [8]: 0.25 to 2 µg/mL
% Resistant, CLSI [9, 13]: 100.0%
% Susceptible, CLSI [9, 13]: 0.0%
% Resistant, EUCAST [9, 13]: 100.0%
% Susceptible, EUCAST [9, 13]: 0.0%
% Resistant, CLSI [9, 14]: 0.0%
% Susceptible, CLSI [9, 14]: 100.0%
% Resistant, EUCAST [9, 14]: 0.0%
% Susceptible, EUCAST [9, 14]: 100.0%
MIC50 [9, 15]: > 16 µg/mL
MIC90 [9, 15]: > 16 µg/mL
MIC50 [9, 16]: 1 µg/mL (≈ 0.69 µM)
MIC90 [9, 16]: 1 µg/mL (≈ 0.69 µM)
MIC ([9]; Enterococcus faecium, read-out: MIC values): > 4 µg/mL
MIC Range [9, 17]: >16 µg/mL
MIC Range [9, 18]: 0.5 to 4 µg/mL

CCCCCCCCCC(=O)N[C@@H](Cc1c[nH]c2ccccc12)C(=O)N[C@H](CC(N)=O)C(=O)N[C@@H](CC(=O)O)C(=O)N[C@@H]1C(=O)NCC(=O)N[C@@H](CCCN)C(=O)N[C@@H](CC(=O)O)C(=O)N[C@H](C)C(=O)N[C@@H](CC(=O)O)C(=O)NCC(=O)N[C@H](CO)C(=O)N[C@@H]([C@H](C)CC(=O)O)C(=O)N[C@@H](CC(=O)c2ccccc2N)C(=O)O[C@@H]1C [Daptomycin, daptomycin]
MIC90 ([1]; Blood, N 100): 0.25 µg/mL (≈ 0.154 µM)
MIC90 ([1]; Non-Blood, N 355): 0.25 µg/mL (≈ 0.154 µM)
MIC90 ([2]; Blood, N 84): 4 µg/mL (≈ 2.47 µM)
MIC90 ([2]; Non-Blood, N 92): 4 µg/mL (≈ 2.47 µM)
MIC90 ([3]; Blood, N 53): 0.06 µg/mL (≈ 0.037 µM)
MIC90 ([3]; Non-Blood, N 282): 0.06 µg/mL (≈ 0.037 µM)
MIC90 ([4]; Blood, N 116): 2 µg/mL (≈ 1.23 µM)
MIC90 ([4]; Non-Blood, N 411): 2 µg/mL (≈ 1.23 µM)
MIC50 ([5]; Blood, n = 108): 0.5 µg/mL (≈ 0.309 µM)
MIC90 ([5]; Blood, n = 108): 0.5 µg/mL (≈ 0.309 µM)
Mode (MIC) ([5]; Blood, n = 108): 0.5 µg/mL
Range (MIC) ([5]; Blood, n = 108, in µg/mL): 0.25-4
MIC50 ([5]; Respiratory, N = 157): 0.5 µg/mL (≈ 0.309 µM)
MIC90 ([5]; Respiratory, N = 157): 0.5 µg/mL (≈ 0.309 µM)
Mode (MIC) ([5]; Respiratory, N = 157): 0.5 µg/mL
Range (MIC) ([5]; Respiratory, N = 157, in µg/mL): 0.12-1
MIC50 ([5]; Skin/Wound, N = 191): 0.5 µg/mL (≈ 0.309 µM)
MIC90 ([5]; Skin/Wound, N = 191): 0.5 µg/mL (≈ 0.309 µM)
Mode (MIC) ([5]; Skin/Wound, N = 191): 0.5 µg/mL
Range (MIC) ([5]; Skin/Wound, N = 191): ≦0.06-1
MIC Range [6]: ≦0.06-2 mg/L
MIC50 ([6]; read-out: MIC 50%): 0.25 µg/mL (≈ 0.154 µM)
MIC90 ([6]; read-out: MIC 90%): 0.5 µg/mL (≈ 0.309 µM)
MIC ([10]; 2012 December): 6 µg/mL (≈ 3.7 µM)
MIC ([10]; 2012 July): 4 µg/mL (≈ 2.47 µM)
susceptibility ([10]; 2012 July): borderline susceptible
% Susceptible, CLSI [7, 11]: 100.0/— %
% susceptible [7]: 100%
MIC50 ([7]; Table 2, E. faecalis (445), read-out: MIC 50%): 1 µg/mL (≈ 0.617 µM)
MIC90 ([7]; Table 2, E. faecalis (445), read-out: MIC 90%): 1 µg/mL (≈ 0.617 µM)
MIC Range ([7]; Table 2, E. faecalis (445), includes four VanA-phenotype strains): ≦0.06-4 mg/L
% Susceptible, CLSI ([8]; CLSI M100-S23 breakpoints): 100.0/— %
% Resistant, EUCAST [8]: 0.0%
% Susceptible, EUCAST [8]: 100.0%
MIC50 ([8]; read-out: MIC 50%): 0.25 µg/mL (≈ 0.154 µM)
MIC90 ([8]; read-out: MIC 90%): 0.5 µg/mL (≈ 0.309 µM)
MIC Range [8]: 0.12 to 1 µg/mL
% Susceptible, CLSI [9, 13]: 100.0/— %
% Susceptible, CLSI [9, 14]: 100.0/— %
MIC50 ([9]; Enterococcus faecium, Table 2, E. faecium Vancomycin-resistant (VanA-phenotype) (153), read-out: MIC 50%): 2 µg/mL (≈ 1.23 µM)
MIC90 ([9]; Enterococcus faecium, Table 2, E. faecium Vancomycin-resistant (VanA-phenotype) (153), read-out: MIC 90%): 2 µg/mL (≈ 1.23 µM)
MIC90 ([9]; Enterococcus faecium, Table 2, E. faecium Vancomycin-susceptible (257), read-out: MIC 90%): 2 µg/mL (≈ 1.23 µM)
MIC Range [9, 17]: 0.25 to 4 µg/mL
MIC 50% [9, 18]: 2 µg/mL (≈ 1.23 µM)
MIC Range [9, 18]: 0.12 to 4 µg/mL
% susceptible ([9]; VanA-phenotype E. faecium, criteria not stated): 100%
